Converted amounts (≈) assume the structure as drawn. “And” between values parts separate entries of the source, which are not always exact repeats. Identical values can stand only once. “Also recorded” adds a separate entry of the source.
What was measured:
[1] = Physical signs after single i.v. dose (Example 3); type: in vivo, Sprague-Dawley rats; conditions: rat, nicotine 0.4 mg/kg, anatabine 0.10, 0.75, 1.0 mg/kg
Protocol: Four aliquots of each dose level formulation were collected and stored at −80° C. The test compound, corresponding dose level, number of animals, and sample collection times for Phase I of the study are shown in Table 3. The test compound, corresponding dose level, number of animals, and sample collection times for Phase II of the study are shown in Table 4. The physical signs of each animal were monitored following administration of the test compound.

[2] = Single i.v. dose toxicity: coagulation (aPTT, PT); type: in vivo, Sprague-Dawley rats; conditions: for ACTIVE PARTIAL THROMBOPLASTIN TIME: Anatabine 0.1 mg/kg single i.v. dose
Excerpt: (§1) On day 15, urine was collected on all surviving animals for urinalysis. The animals were euthanized and bled via cardiac puncture. Blood was collected for hematology, clinical chemistry, and coagulation analysis. Tissues were collected, weighed, and stored in 10% neutral-buffered formalin for possible future analysis.

[3] = Single i.v. dose toxicity: hematology; type: in vivo, Sprague-Dawley rats
Excerpt: as §1

[4] = Single i.v. dose toxicity: necropsy observations and organ weights; type: in vivo, Sprague-Dawley rats
Protocol: Body weight and food consumption was measured daily for 14 days. On day 15, urine was collected on all surviving animals. The animals were euthanized and bled via cardiac puncture, and blood was collected for analysis. Tissues were collected, weighed, evaluated for gross abnormalities, and stored in 10% neutral-buffered formalin.
as §1

NFκB = NFκB luciferase assay (inhibition of TNFα-induced NFκB activity); type: cell-based, Human
Protocol: The smokeless tobacco used in these experiments was plain long-leaf Copenhagen tobacco purchased from a local vendor. Crude extract was extracted with methanol and water and clarified by centrifugation and filtration. The alkaloid extract was prepared from sodium hydroxide and methanol extraction, organic phase separation and purification. All treatment samples were prepared as a function of weight (μg/ml), and all samples were diluted in DMSO.
Human […] kidney cells (HEK293) transfected with an NFκB luciferase reporter were challenged with TNFα for three hours, then samples were applied to the challenged cells.
The effect of S-(−)-anatabine on TNFα-induced NFκB activity in vitro was determined as described in Example 1.

nAChR α7 = molecular target: T1, nAChR α7 (Homo sapiens, UniProt P36544); assay: nAChR α7 channel agonist assay (FLIPR); type: cell-based; conditions: in presence of PNU-120596; maximal stimulation not achieved
T1 construct: host or cells: CHO cells coexpressing RIC-3
Protocol: (§2) Briefly, cells were incubated with […] dye for 30 min at 37° C.
Therefore, the assay of agonist activity for either Ach or for the test articles was conducted in the presence of the positive allosteric modulator.

nAChR α4/β2 = molecular target: T2, nAChR α4/β2 (Homo sapiens, UniProt P17787+P43681); type: cell-based; conditions: 100 μM Ach + 0.3 μM epibatidine; not concentration-dependent, IC50s could not be determined
T2 construct: host or cells: HEK293 cells, transient
Protocol: as §2

nAChR α3/β4 = nAChR α3/β4 (Homo sapiens, UniProt P30926+P32297); type: cell-based; conditions: with 10 μM Ach
Protocol: as §2

[5] = 0.1 mg/kg, gender F, group mean
[6] = 0.1 mg/kg, gender M, group mean
[7] = 0.75 mg/kg, gender F, group mean
[8] = 0.75 mg/kg, gender M, group mean
[9] = anatabine 0.1 mg/kg, female rats, individual animals
[10] = anatabine 0.1 mg/kg, male rats, individual animals
[11] = anatabine 0.75 mg/kg, female rats, individual animals
[12] = anatabine 0.75 mg/kg, male rats, individual animals
[13] = Group B: Anatabine 0.1 mg/kg (Females), individual animals
[14] = Group B: Anatabine 0.1 mg/kg (Males), individual animals
[15] = Group C: Anatabine 0.75 mg/kg (Females), individual animals
[16] = Group C: Anatabine 0.75 mg/kg (Males), individual animals
[17] = female animals, Anatabine 0.1 mg/kg, n = 5
[18] = female animals, Anatabine 0.75 mg/kg, n = 5
[19] = male rats, single i.v. 0.1 mg/kg, day 15
[20] = male rats, single i.v. 0.75 mg/kg anatabine, day 15

T1 sequence (P36544 23-502): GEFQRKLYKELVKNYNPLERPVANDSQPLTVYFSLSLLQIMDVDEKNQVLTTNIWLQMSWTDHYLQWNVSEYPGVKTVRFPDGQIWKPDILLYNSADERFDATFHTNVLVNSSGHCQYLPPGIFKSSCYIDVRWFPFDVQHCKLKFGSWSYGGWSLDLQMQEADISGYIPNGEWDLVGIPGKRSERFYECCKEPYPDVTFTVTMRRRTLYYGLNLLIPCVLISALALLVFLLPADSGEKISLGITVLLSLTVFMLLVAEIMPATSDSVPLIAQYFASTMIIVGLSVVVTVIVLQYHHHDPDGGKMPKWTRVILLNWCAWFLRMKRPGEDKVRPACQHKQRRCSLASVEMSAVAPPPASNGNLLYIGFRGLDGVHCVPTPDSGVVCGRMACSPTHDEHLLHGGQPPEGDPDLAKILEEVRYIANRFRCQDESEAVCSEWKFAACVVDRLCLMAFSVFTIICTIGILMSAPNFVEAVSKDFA
nAChR α3/β4, sequence (P32297 32-505): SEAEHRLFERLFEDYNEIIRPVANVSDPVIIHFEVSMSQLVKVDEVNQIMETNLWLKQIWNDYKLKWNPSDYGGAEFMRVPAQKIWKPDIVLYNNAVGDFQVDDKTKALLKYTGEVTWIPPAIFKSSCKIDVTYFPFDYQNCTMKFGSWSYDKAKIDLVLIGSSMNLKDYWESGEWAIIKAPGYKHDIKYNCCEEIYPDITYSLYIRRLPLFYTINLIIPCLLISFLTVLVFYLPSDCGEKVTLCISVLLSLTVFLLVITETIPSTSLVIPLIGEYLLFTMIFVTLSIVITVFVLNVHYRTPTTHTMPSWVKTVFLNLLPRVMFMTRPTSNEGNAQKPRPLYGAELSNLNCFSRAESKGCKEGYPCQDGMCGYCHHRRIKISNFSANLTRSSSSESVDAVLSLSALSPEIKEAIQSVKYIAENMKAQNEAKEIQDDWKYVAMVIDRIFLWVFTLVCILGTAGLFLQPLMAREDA
nAChR α3/β4, sequence (P30926 22-498): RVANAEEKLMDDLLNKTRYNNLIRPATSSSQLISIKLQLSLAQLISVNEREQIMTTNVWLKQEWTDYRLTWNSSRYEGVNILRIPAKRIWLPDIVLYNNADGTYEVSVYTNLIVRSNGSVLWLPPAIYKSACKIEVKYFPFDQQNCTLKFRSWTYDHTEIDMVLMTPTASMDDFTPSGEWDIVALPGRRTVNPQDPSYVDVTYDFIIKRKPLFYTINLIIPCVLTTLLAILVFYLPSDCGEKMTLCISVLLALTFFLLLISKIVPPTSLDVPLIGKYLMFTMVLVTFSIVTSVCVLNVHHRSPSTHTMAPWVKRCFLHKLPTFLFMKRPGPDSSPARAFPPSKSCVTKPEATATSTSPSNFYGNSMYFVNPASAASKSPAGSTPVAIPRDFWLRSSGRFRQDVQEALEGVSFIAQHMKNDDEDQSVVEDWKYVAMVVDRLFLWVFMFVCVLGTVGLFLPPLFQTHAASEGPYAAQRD
T2 sequence (P43681 29-627): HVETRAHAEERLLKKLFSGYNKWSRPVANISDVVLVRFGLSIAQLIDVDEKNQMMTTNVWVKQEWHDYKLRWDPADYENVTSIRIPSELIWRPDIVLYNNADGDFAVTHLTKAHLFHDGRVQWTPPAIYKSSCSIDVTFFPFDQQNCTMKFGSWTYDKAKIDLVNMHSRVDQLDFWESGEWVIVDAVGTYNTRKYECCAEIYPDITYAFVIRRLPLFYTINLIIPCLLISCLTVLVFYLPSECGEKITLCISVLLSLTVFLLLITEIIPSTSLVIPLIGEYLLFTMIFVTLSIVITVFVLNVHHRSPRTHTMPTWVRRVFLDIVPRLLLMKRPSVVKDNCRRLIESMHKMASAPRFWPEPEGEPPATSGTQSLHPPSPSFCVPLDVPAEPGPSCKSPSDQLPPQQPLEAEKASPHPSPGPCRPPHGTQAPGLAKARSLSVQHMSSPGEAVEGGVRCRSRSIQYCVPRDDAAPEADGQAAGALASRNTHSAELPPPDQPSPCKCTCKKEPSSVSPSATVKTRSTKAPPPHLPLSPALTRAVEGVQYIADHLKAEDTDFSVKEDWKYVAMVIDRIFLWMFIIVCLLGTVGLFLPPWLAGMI
T2 sequence (P17787 26-502): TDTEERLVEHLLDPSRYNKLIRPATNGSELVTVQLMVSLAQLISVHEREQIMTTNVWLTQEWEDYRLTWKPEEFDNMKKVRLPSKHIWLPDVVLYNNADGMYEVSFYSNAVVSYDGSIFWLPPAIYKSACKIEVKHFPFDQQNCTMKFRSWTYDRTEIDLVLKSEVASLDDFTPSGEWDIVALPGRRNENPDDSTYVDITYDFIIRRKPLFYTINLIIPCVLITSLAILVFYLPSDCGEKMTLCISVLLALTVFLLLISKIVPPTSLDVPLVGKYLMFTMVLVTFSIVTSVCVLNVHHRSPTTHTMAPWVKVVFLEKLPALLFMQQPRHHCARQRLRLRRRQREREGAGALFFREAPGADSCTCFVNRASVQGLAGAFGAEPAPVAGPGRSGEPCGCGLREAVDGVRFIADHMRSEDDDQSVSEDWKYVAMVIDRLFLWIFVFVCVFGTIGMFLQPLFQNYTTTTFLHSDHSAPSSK

C1=CCC(c2cccnc2)NC1 (racemic) [Anatabine, 1,2,3,6-tetrahydro-[2,3′]bipyridinyl]
physical signs post dose [1]: no obvious adverse signs were observed | ACTIVE PARTIAL THROMBOPLASTIN TIME ([2]; female rats, individual animals B6-B10): 26 s | ACTIVE PARTIAL THROMBOPLASTIN TIME ([2]; male rats, individual animals B1-B5): 32 s | aPTT and PT vs vehicle control ([2]; rat, each anatabine treatment group): no significant differences in aPTT or PT | BASOPHIL [3, 5]: 0.0% | EOSINOPHIL [3, 5]: 0.0% | MCV [3, 5]: 60.0 fL | MONOCYTE [3, 5]: 1.8% | NEUTROPHIL SEG [3, 5]: 8.0% | PLATELET COUNT [3, 5]: 997300 µL⁻¹ | RBC [3, 5]: 7.8e+06 µL⁻¹ | RETICULOCYTE COUNT [3, 5]: 4.5% | WBC [3, 5]: 9300 µL⁻¹ | BASOPHIL [3, 6]: 0.0% | EOSINOPHIL [3, 6]: 0.2% | MONOCYTE [3, 6]: 2.0% | NEUTROPHIL SEG [3, 6]: 8.6% | PLATELET COUNT [3, 6]: 1.2486e+06 µL⁻¹ | RBC [3, 6]: 7.4e+06 µL⁻¹ | RETICULOCYTE COUNT [3, 6]: 5.5% | WBC [3, 6]: 15600 µL⁻¹ | BASOPHIL [3, 7]: 0.0% | EOSINOPHIL [3, 7]: 0.0% | MONOCYTE [3, 7]: 0.8% | NEUTROPHIL SEG [3, 7]: 8.6% | PLATELET COUNT [3, 7]: 1.2696e+06 µL⁻¹ | RBC [3, 7]: 7.5e+06 µL⁻¹ | RETICULOCYTE COUNT [3, 7]: 3.3% | WBC [3, 7]: 10300 µL⁻¹ | BASOPHIL [3, 8]: 0.0% | EOSINOPHIL [3, 8]: 0.0% | MCHC [3, 8]: 34.0% | MONOCYTE [3, 8]: 1.4% | NEUTROPHIL SEG [3, 8]: 9.8% | PLATELET COUNT [3, 8]: 1.3258e+06 µL⁻¹ | RBC [3, 8]: 7.5e+06 µL⁻¹ | RETICULOCYTE COUNT [3, 8]: 4.4% | WBC [3, 8]: 12100 µL⁻¹ | ANISOCYTOSIS [3, 9]: SLIGHT | BASOPHIL [3, 9]: 0% | EOSINOPHIL [3, 9]: 0% | HCT [3, 9]: 44% | HGB [3, 9]: 17 gm/dL | LYMPHOCYTE [3, 9]: 89% and 90% and 91% and 93% and 88% | MCHC [3, 9]: 34% | MONOCYTE [3, 9]: 3% and 2% (2×) and 1% (2×) | NEUTROPHILSEG [3, 9]: 8% (2×) and 7% and 6% and 11% | PLATELETEST [3, 9]: ADEQUATE; also recorded: DECREASED | POLYCHROMASIA [3, 9]: SLIGHT | RETICULOCYTE COUNT [3, 9]: 4.8% and 5.4% and 6.1% and 3.7% and 2.4% | ANISOCYTOSIS [3, 10]: SLIGHT | BASOPHIL [3, 10]: 0% | EOSINOPHIL [3, 10]: 0% (4×) and 1% | HCT [3, 10]: 45% | LYMPHOCYTE [3, 10]: 87% (2×) and 94% and 90% and 88% | MCHC [3, 10]: 34% (2×) and 32% | MONOCYTE [3, 10]: 1% (2×) and 3% (2×) and 2% | NEUTROPHILSEG [3, 10]: 12% and 3% and 7% and 10% and 11% | PLATELETEST [3, 10]: ADEQUATE; also recorded: INCREASED | POLYCHROMASIA [3, 10]: SLIGHT | RETICULOCYTE COUNT [3, 10]: 6.1% and 5.4% and 4.7% and 5.6% and 5.9% | ANISOCYTOSIS [3, 11]: SLIGHT | BASOPHIL [3, 11]: 0% | EOSINOPHIL [3, 11]: 0% | HGB [3, 11]: 15 gm/dL | LYMPHOCYTE [3, 11]: 93% (2×) and 87% and 91% and 89% | MONOCYTE [3, 11]: 1% (2×) and 0% (2×) and 2% | NEUTROPHILSEG [3, 11]: 6% and 12% and 9% (2×) and 7% | PLATELETEST [3, 11]: ADEQUATE; also recorded: INCREASED | POLYCHROMASIA [3, 11]: SLIGHT | RETICULOCYTE COUNT [3, 11]: 3.4% and 1.8% and 3.2% and 3.8% and 4.1% | ANISOCYTOSIS [3, 12]: SLIGHT | BASOPHIL [3, 12]: 0% | EOSINOPHIL [3, 12]: 0% | LYMPHOCYTE [3, 12]: 86% and 89% (2×) and 92% and 88% | MCH [3, 12]: 21 UUG and 22 UUG | MONOCYTE [3, 12]: 1% (3×) and 2% (2×) | NEUTROPHILSEG [3, 12]: 13% and 10% (3×) and 6% | PLATELETEST [3, 12]: ADEQUATE; also recorded: DECREASED | POLYCHROMASIA [3, 12]: SLIGHT | RETICULOCYTE COUNT [3, 12]: 3.6% and 4.2% and 4.1% and 4.7% and 5.3% | mean corpuscular hemoglobin concentration (MCHC) vs control ([3]; female rats, 0.1 mg/kg anatabine i.v.): small but statistically significant decrease | mean corpuscular volume (MCV) and mean corpuscular hemoglobin (MCH) vs control ([3]; female rats, […] anatabine, 0.75 mg/kg nicotine i.v.): small, but statistically significant decreases | Tissue Collection Weights: Heart [4, 13]: 0.95 g | Tissue Collection Weights: Ovaries/uterus [4, 13]: 0.96 g and 0.84 g and 0.70 g | Tissue Collection Weights: Small intestine [4, 13]: 0.87 g and 0.71 g and 0.55 g and 0.49 g and 0.63 g | Tissue Collection Weights: Spleen [4, 13]: 0.79 g and 0.62 g and 0.51 g and 0.67 g and 0.65 g | Tissue Collection Weights: Thymus [4, 13]: 0.68 g and 0.59 g and 0.49 g and 0.71 g and 0.73 g | Tissue Collection Weights: Heart [4, 14]: 1.60 g | Tissue Collection Weights: Kidneys [4, 14]: 3.70 g | Tissue Collection Weights: Prostate [4, 14]: 0.72 g and 0.49 g and 0.73 g and 0.53 g and 0.48 g | Tissue Collection Weights: Small intestine [4, 14]: 0.61 g and 0.96 g and 0.88 g and 0.50 g and 0.35 g | Tissue Collection Weights: Spleen [4, 14]: 0.91 g and 0.66 g and 0.82 g and 0.93 g and 0.76 g | Tissue Collection Weights: Thymus [4, 14]: 0.74 g (2×) and 0.76 g and 0.71 g and 0.81 g | Tissue Collection Weights: Brain [4, 15]: 1.93 g | Tissue Collection Weights: Heart [4, 15]: 0.99 g | Tissue Collection Weights: Kidneys [4, 15]: 2.20 g | Tissue Collection Weights: Lungs [4, 15]: 1.30 g | Tissue Collection Weights: Ovaries/uterus [4, 15]: 0.81 g and 1.50 g and 0.72 g | Tissue Collection Weights: Small intestine [4, 15]: 0.72 g and 0.37 g and 0.85 g and 0.47 g | Tissue Collection Weights: Spleen [4, 15]: 0.70 g and 0.65 g (2×) and 0.51 g and 0.49 g | Tissue Collection Weights: Thymus [4, 15]: 0.56 g and 0.53 g and 0.63 g and 0.52 g and 0.54 g | Tissue Collection Weights: Brain [4, 16]: 2.00 g | Tissue Collection Weights: Prostate [4, 16]: 0.49 g (2×) and 0.65 g and 0.46 g and 0.45 g | Tissue Collection Weights: Small intestine [4, 16]: 0.54 g and 0.56 g and 0.41 g and 0.47 g | Tissue Collection Weights: Spleen [4, 16]: 0.71 g and 0.63 g and 0.79 g and 0.93 g and 0.64 g | Tissue Collection Weights: Testes [4, 16]: 2.70 g | Tissue Collection Weights: Thymus [4, 16]: 0.52 g and 0.67 g and 0.69 g and 0.47 g | Organ Weight Brain, Mean [4, 17]: 1.86 g | Organ Weight Heart, Mean [4, 17]: 1.13 g | Organ Weight Liver, Mean [4, 17]: 10.84 g | Organ Weight Lungs, Mean [4, 17]: 1.41 g | Organ Weight Ovaries/uteris, Mean [4, 17]: 1.14 g | Organ Weight, Small intestine (mean) [4, 17]: 0.65 g | Organ Weight, Spleen (mean) [4, 17]: 0.65 g | Organ Weight, Thymus (mean) [4, 17]: 0.64 g | Organ Weight Brain, Mean [4, 18]: 1.90 g | Organ Weight Heart, Mean [4, 18]: 1.11 g | Organ Weight Kidneys, Mean [4, 18]: 2.30 g | Organ Weight Liver, Mean [4, 18]: 10.42 g | Organ Weight Lungs, Mean [4, 18]: 1.45 g | Organ Weight Ovaries/uteris, Mean [4, 18]: 1.58 g | Organ Weight, Small intestine (mean) [4, 18]: 0.75 g | Organ Weight, Spleen (mean) [4, 18]: 0.60 g | Organ Weight, Thymus (mean) [4, 18]: 0.56 g | Organ Weight, Prostate (mean) [4, 19]: 0.59 g | Organ Weight, Small intestine (mean) [4, 19]: 0.66 g | Organ Weight, Spleen (mean) [4, 19]: 0.82 g | Organ Weight, Thymus (mean) [4, 19]: 0.75 g | Organ Weight, Prostate (mean) [4, 20]: 0.51 g | Organ Weight, Small intestine (mean) [4, 20]: 0.68 g | Organ Weight, Spleen (mean) [4, 20]: 0.74 g | Organ Weight, Thymus (mean) [4, 20]: 0.67 g | Effect on TNFα-induced NFκB-mediated transcription of luciferase (NFκB; HEK293 with NFκB luciferase reporter challenged with TNFα): reduce this transcription to control levels | IC50 (NFκB; Homo sapiens, 20 ng/ml TNFα, HEK293 NFκB luciferase): ~600 µg/mL (≈ 3.74 mM) | agonist activity (nAChR α7): showed agonist activity | inhibition (nAChR α4/β2): inhibited receptor activity | potentiation (nAChR α3/β4): Neither nicotine nor anatabine potentiated

Reference: patent US20160030407A1, “Method of Treating Inflammatory Lung Disease” (priority 2010, published 2016)
